In patent US8722849B2, “Polypeptides” (Novo Nordisk A/S, priority 2011, dated 2014):
Values after ≈ are worked out from the molar mass of the structure shown. Read-outs that look alike come from different tables or passages of the source. Starred links: 1 amine or outer side, 2 acyl side, 3 side chain; linkers in the order of their positions; H or OH if unused. Positions of bridges follow the written chain, without caps; N, C: chain ends. Residues, ends and D or L forms follow the SMILES beside them. *: point of attachment. C20 diacid = O=C(O)CCCCCCCCCCCCCCCCCCC(=O)*; γGlu = O=C(O)[C@H](CCC(=O)[*:2])N[*:1]; AEEA = NCCOCCOCC(=O)O

Key:
[1] = biological target: T1, human calcitonin receptor (Homo sapiens, UniProt P30988); assay: Assay (II)a functional CRE-luciferase assay, human calcitonin receptor; format: cell-based
T1 construct: expressed in transfected cells; host or cells: BHK570
T1 sequence (P30988 25-474): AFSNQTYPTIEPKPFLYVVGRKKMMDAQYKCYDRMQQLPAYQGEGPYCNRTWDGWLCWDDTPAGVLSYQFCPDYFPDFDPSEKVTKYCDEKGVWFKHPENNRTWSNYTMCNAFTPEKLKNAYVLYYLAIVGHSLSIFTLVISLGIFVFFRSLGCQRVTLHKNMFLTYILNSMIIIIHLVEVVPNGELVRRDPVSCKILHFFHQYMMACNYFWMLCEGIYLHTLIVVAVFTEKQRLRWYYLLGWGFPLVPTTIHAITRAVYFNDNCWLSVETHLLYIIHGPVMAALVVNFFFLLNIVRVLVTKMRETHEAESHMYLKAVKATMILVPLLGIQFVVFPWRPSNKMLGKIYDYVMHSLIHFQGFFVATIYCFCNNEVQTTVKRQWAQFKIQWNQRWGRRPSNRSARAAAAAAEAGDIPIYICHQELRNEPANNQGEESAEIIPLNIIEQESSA
Description: (§1) 1. Luciferase Assay Outline
(§2) Activation of calcitonin and amylin (coexpression of calcitonin receptor and receptor activity modifying proteins (RAMP)) receptors lead to increased intracellular concentrations of cAMP. Consequently, transcription is activated by promoters containing multiple copies of the cAMP response element (CRE). It is thus possible to measure amylin activity by the use of a CRE luciferase reporter gene introduced into BHK cells also expressing calcitonin or amylin receptors.
(§3) A BHK570 cell line was stably transfected with the human calcitonin receptor and a CRE-responsive luciferase reporter gene. The cell line was further transfected with RAMP-3, using standard methods. This turns the calcitonin receptor into an amylin 3(a) receptor. Methotrexate, Neomycin, and Hygromycin are selection markers for luciferase, the calcitonin receptor, and RAMP-3, respectively.
(§4) To perform activity assays, BHK calcitonin (a) receptor- or amylin 3(a)-receptor/CRE-luc cells were seeded in white 96 well culture plates at a density of about 20.000 cells/well. […] Further, 50 μl/well of standard or sample in assay buffer were added. After 3 hours incubation at 37° C. and 5% CO2, the assay medium with standard or sample were removed and replaced by 100 μl/well PBS. Further, 100 μl/well LucLite™ was added. The plates were sealed and incubated at room temperature for 30 minutes. Finally, luminescence was measured on a TopCounter (Packard) in SPC (single photon counting) mode.

[2] = Assay (IV) determination of solubility; format: physicochemical
Procedure, shortened: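 Solubility was profiled across pH 3.0–8.0 after 18 hours at room temperature: a ~500 nmol/ml aqueous polypeptide solution was diluted 1:1 into 100 mM glycylglycine or bistrispropane buffers. After centrifugation, HPLC gave the dissolved concentration.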

[3] = biological target: T2, human amylin receptor (amylin 3(a) receptor: human calcitonin receptor + RAMP-3) (Homo sapiens, UniProt O60896+P30988); assay: Assay (II)a functional CRE-luciferase assay, human amylin receptor; format: cell-based
T2 construct: expressed in transfected cells; host or cells: BHK570
T2 sequence (P30988 25-474): T1 sequence (P30988 25-474)
T2 sequence (O60896 24-148 partner): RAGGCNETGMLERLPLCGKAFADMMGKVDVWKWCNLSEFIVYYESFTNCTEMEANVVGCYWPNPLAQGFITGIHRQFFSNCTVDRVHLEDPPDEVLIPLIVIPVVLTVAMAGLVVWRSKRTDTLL
Description: as §1, §2, §3, §4

[4] = Table 7, human calcitonin (CTa) receptor
[5] = Table 11, read-out: CTa receptor human EC50
[6] = pH 3, pH 3.0, read-out: Solubility pH 3.0
[7] = pH 4, pH 4.0, 18 hours at room temperature, Table 2, read-out: Solubility pH 4.0
[8] = pH 4, pH 4.0, read-out: Solubility pH 4.0
[9] = pH 5, pH 5.0, read-out: Solubility pH 5.0
[10] = pH 6, pH 6.0, read-out: Solubility pH 6.0
[11] = pH 6.5, pH 6.5, read-out: Solubility pH 6.5
[12] = pH 7, pH 7.0, 18 hours at room temperature, Table 3, read-out: Solubility pH 7.0
[13] = pH 7, pH 7.0, read-out: Solubility pH 7.0
[14] = pH 7.5, pH 7.5, read-out: Solubility pH 7.5
[15] = pH 8, pH 8.0, read-out: Solubility pH 8.0
[16] = Table 2, BHK amylin 3(a)-receptor/CRE-luc cells
[17] = Table 3, BHK amylin 3(a)-receptor/CRE-luc cells

| EC50 [1, 4] [nM] | EC50 [1, 5] [nM] | solubility [2, 6] [µM] | solubility [2, 7] [µM] | solubility [2, 8] [µM] | solubility [2, 9] [µM] | solubility [2, 10] [µM] | solubility [2, 11] [µM] | solubility [2, 12] [µM] | solubility [2, 13] [µM] | solubility [2, 14] [µM] | solubility [2, 15] [µM] | EC50 [3, 16] [nM] | EC50 [3, 17] [nM] | EC50 ([3]; Table 4) [nM] | EC50 ([3]; Table 6, human amylin receptor) [nM] | EC50 ([3]; Table 7, human amylin receptor) [nM] | EC50 ([3]; Table 11) [nM] | SMILES | other results |
| --- | --- | --- | --- | --- | --- | --- | --- | --- | --- | --- | --- | --- | --- | --- | --- | --- | --- | --- | --- |
| 0.113 | 0.113 | > 200 | > 200 | > 200 | > 200 | > 200 | > 200 | > 200 | > 200 | > 200 | > 200 | 0.203 | 0.203 | 0.203 | 0.203 | 0.203 | 0.203 | CC[C@H](C)[C@H](NC(=O)[C@@H]1CCCN1C(=O)CNC(=O)[C@H](Cc1ccccc1)NC(=O)[C@H](CC(N)=O)NC(=O)[C@H](CCC(=O)O)NC(=O)[C@H](CO)NC(=O)[C@H](CO)NC(=O)[C@H](Cc1c[nH]cn1)NC(=O)[C@H](Cc1c[nH]cn1)NC(=O)[C@H](CC(C)C)NC(=O)[C@H](Cc1ccccc1)NC(=O)[C@H](CCC(=O)O)NC(=O)[C@H](C)NC(=O)[C@H](CC(C)C)NC(=O)[C@H](CCCNC(=N)N)NC(=O)[C@H](CCC(N)=O)NC(=O)[C@@H](NC(=O)[C@H](C)NC(=O)[C@@H]1CSSC[C@H](NC(=O)[C@H](CCCCN)NC(=O)COCCOCCNC(=O)COCCOCCNC(=O)CC[C@H](NC(=O)CCCCCCCCCCCCCCCCCCC(=O)O)C(=O)O)C(=O)N[C@@H](CC(N)=O)C(=O)N[C@@H]([C@@H](C)O)C(=O)N[C@@H](C)C(=O)N[C@@H]([C@@H](C)O)C(=O)N1)[C@@H](C)O)C(=O)N[C@@H](CC(C)C)C(=O)N1CCC[C@H]1C(=O)N1CCC[C@H]1C(=O)N[C@H](C(=O)N[C@@H](CC(N)=O)C(=O)N[C@H](C(=O)NCC(=O)N[C@@H](CO)C(=O)N[C@@H](CC(N)=O)C(=O)N[C@H](C(=O)N1CCC[C@H]1C(N)=O)[C@@H](C)O)C(C)C)[C@@H](C)O [Example 167] ({C20 diacid-γGlu-AEEA-AEEA}-KCNTATCATQRLAEFLHHSSENFGPILPPTNVGSNTP-NH2; disulfide 2-7) | – |
| 0.672 | 0.672 | > 200 | > 200 | > 200 | 194 (≈ 896 µg/mL) | 176 (≈ 813 µg/mL) | 195 (≈ 901 µg/mL) | > 200 | > 200 | > 200 | > 200 | 0.334 | 0.334 | 0.334 | 0.334 | 0.334 | 0.334 | CC[C@H](C)[C@H](NC(=O)[C@@H]1CCCN1C(=O)CNC(=O)[C@H](Cc1ccccc1)NC(=O)[C@H](CC(N)=O)NC(=O)[C@H](CC(N)=O)NC(=O)[C@H](CO)NC(=O)[C@H](CO)NC(=O)[C@H](Cc1c[nH]cn1)NC(=O)[C@H](Cc1c[nH]cn1)NC(=O)[C@H](CC(C)C)NC(=O)[C@H](Cc1ccccc1)NC(=O)[C@H](CCC(=O)O)NC(=O)[C@H](C)NC(=O)[C@H](CC(C)C)NC(=O)[C@H](CCCNC(=N)N)NC(=O)[C@H](CCC(N)=O)NC(=O)[C@@H](NC(=O)[C@H](C)NC(=O)[C@@H]1CSSC[C@H](NC(=O)COCCOCCNC(=O)COCCOCCNC(=O)CC[C@H](NC(=O)CCCCCCCCCCCCCCCCCCC(=O)O)C(=O)O)C(=O)N[C@@H](CC(N)=O)C(=O)N[C@@H]([C@@H](C)O)C(=O)N[C@@H](C)C(=O)N[C@@H]([C@@H](C)O)C(=O)N1)[C@@H](C)O)C(=O)N[C@@H](CC(C)C)C(=O)N1CCC[C@H]1C(=O)N1CCC[C@H]1C(=O)N[C@H](C(=O)N[C@@H](CC(N)=O)C(=O)N[C@H](C(=O)NCC(=O)N[C@@H](CO)C(=O)N[C@@H](CC(N)=O)C(=O)N[C@H](C(=O)N[C@@H](Cc1ccc(O)cc1)C(N)=O)[C@@H](C)O)C(C)C)[C@@H](C)O [Example 43, N-alpha-[2-(2-{2-[2-(2-{2-[(S)-4-Carboxy-4-(19-carboxyheptadecanoylamino)butyrylamino]ethoxy}ethoxy)acetylamino]ethoxy}ethoxy)acetyl]-[des1,Glu14,His17]-pramlintide] ({C20 diacid-γGlu-AEEA-AEEA}-CNTATCATQRLAEFLHHSSNNFGPILPPTNVGSNTY-NH2; disulfide 1-6) | – |
| 0.24 | – | – | – | – | – | – | – | – | – | – | – | 0.115 | – | – | – | – | – | CC(C)C[C@H](NC(=O)[C@H](CCCNC(=N)N)NC(=O)[C@H](CCC(N)=O)NC(=O)[C@@H](NC(=O)[C@H](C)NC(=O)[C@@H]1CSSC[C@H](NC(=O)[C@H](Cc2cnc[nH]2)NC(=O)CC[C@H](NC(=O)CCCCCCCCCCCCCCCCCCC(=O)O)C(=O)O)C(=O)N[C@@H](CC(N)=O)C(=O)N[C@@H]([C@@H](C)O)C(=O)N[C@@H](C)C(=O)N[C@@H]([C@@H](C)O)C(=O)N1)[C@@H](C)O)C(=O)N[C@@H](C)C(=O)N[C@@H](CCC(=O)O)C(=O)N[C@@H](Cc1ccccc1)C(=O)N[C@@H](CC(C)C)C(=O)N[C@@H](Cc1cnc[nH]1)C(=O)N[C@@H](CCCNC(=N)N)C(=O)N[C@@H](CO)C(=O)N[C@@H](CO)C(=O)N[C@@H](CC(N)=O)C(=O)N[C@@H](CC(N)=O)C(=O)N[C@@H](Cc1ccccc1)C(=O)NCC(=O)N[C@@H](C)C(=O)N1CCC[C@H]1C(=O)N[C@@H](CC(C)C)C(=O)N[C@@H](CO)C(=O)N[C@@H](CO)C(=O)N[C@H](C(=O)N[C@@H](CC(N)=O)C(=O)N[C@H](C(=O)NCC(=O)N[C@@H](CO)C(=O)N[C@@H](CC(N)=O)C(=O)N[C@H](C(=O)N[C@@H](Cc1ccc(O)cc1)C(N)=O)[C@@H](C)O)C(C)C)[C@@H](C)O [Example 6, N-alpha-[(S)-4-Carboxy-4-(19-carboxynonadecanoylamino)butyryl]-[His1,Glu14,His17,Arg18,Ala25,Pro26,Ser28,Ser29]-pramlintide] ({C20 diacid-γGlu}-HCNTATCATQRLAEFLHRSSNNFGAPLSSTNVGSNTY-NH2; disulfide 2-7) | solubility at 18 h ([2]; bistrispropane buffer, pH 6, pH 6.0, read-out: Solubility pH 6.0): 12 µM (≈ 53.1 µg/mL); solubility at 18 h ([2]; bistrispropane buffer, pH 7.5, pH 7.5, read-out: Solubility pH 7.5): 18 µM (≈ 79.6 µg/mL); solubility at 18 h ([2]; bistrispropane buffer, pH 8, pH 8.0, read-out: Solubility pH 8.0): 48 µM (≈ 212 µg/mL); solubility at 18 h ([2]; glycylglycine buffer, pH 3, pH 3.0, read-out: Solubility pH 3.0): > 200 µM; solubility at 18 h ([2]; glycylglycine buffer, pH 4, pH 4.0, 18 hours at room temperature, Table 2, read-out: Solubility pH 4.0): 163 µM (≈ 721 µg/mL); solubility at 18 h ([2]; glycylglycine buffer, pH 4, pH 4.0, read-out: Solubility pH 4.0): 163 µM (≈ 721 µg/mL); solubility at 18 h ([2]; glycylglycine buffer, pH 5, pH 5.0, read-out: Solubility pH 5.0): 168 µM (≈ 743 µg/mL); solubility at 18 h ([2]; pH 6.5, read-out: Solubility pH 6.5): 4 µM (≈ 17.7 µg/mL); solubility at 18 h ([2]; pH 7.0, read-out: Solubility pH 7.0): 7 µM (≈ 31 µg/mL) |
